Reference: PubChem BioAssay (NCI)
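Assay format: 96-well plates, 48-hour exposure. GI50 = concentration required for 50% inhibition of growth. TGI marks complete inhibition of growth.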

Columns and labels:
Test in all cases: inhibition of tumour cell growth, NCI panel, 48 h
SK-MEL-5 melanoma = test system: SK-MEL-5 melanoma
UACC-62 melanoma = test system: UACC-62 melanoma
SK-MEL-28 melanoma = test system: SK-MEL-28 melanoma
MDA-MB-231 breast = test system: MDA-MB-231 breast
ACHN renal = test system: ACHN renal
LOX IMVI melanoma = test system: LOX IMVI melanoma
NCI/ADR-RES ovarian = test system: NCI/ADR-RES ovarian
HOP-62 NSCLC = test system: HOP-62 NSCLC
DLD-1 colon = test system: DLD-1 colon

Structure (SMILES) | GI50 (SK-MEL-5 melanoma) [µM] | TGI (SK-MEL-5 melanoma) [µM] | GI50 (UACC-62 melanoma) [µM] | TGI (UACC-62 melanoma) [µM] | GI50 (SK-MEL-28 melanoma) [µM] | TGI (SK-MEL-28 melanoma) [µM] | GI50 (MDA-MB-231 breast) [µM] | TGI (MDA-MB-231 breast) [µM] | GI50 (ACHN renal) [µM] | TGI (ACHN renal) [µM] | GI50 (LOX IMVI melanoma) [µM] | TGI (LOX IMVI melanoma) [µM] | GI50 (NCI/ADR-RES ovarian) [µM] | TGI (NCI/ADR-RES ovarian) [µM] | GI50 (HOP-62 NSCLC) [µM] | TGI (HOP-62 NSCLC) [µM] | GI50 (DLD-1 colon) [µM] | TGI (DLD-1 colon) [µM]
CCCCNc1ccc(Nc2ccccc2)cc1 | 2.78 | 10.1 | 8.2 | > 100 | 10.4 | 60.2 | 16.9 | 95 | 16.7 | > 100 | 5.85 | 21.5 | 21.5 | > 100 | 14.4 | 71.4 | – | –
CC(=O)O[C@H]1CC[C@@]2(C)C(=C/C(=N/OCCN3CCCC3)[C@H]3[C@@H]4CC[C@H](OC(C)=O)[C@@]4(C)CC[C@@H]32)C1 | 17.3 | 31.9 | 45.3 | > 100 | 31.2 | 64.1 | 38.7 | > 100 | > 100 | > 100 | 19.6 | 38.1 | > 100 | > 100 | 29.2 | > 100 | – | –
CC([O-])=C1C(=O)c2ccccc2C1=O.CC([O-])=C1C(=O)c2ccccc2C1=O.CC[O-].CC[O-].[Ti+4] | > 100 | > 100 | > 100 | > 100 | > 100 | > 100 | – | – | > 100 | > 100 | > 100 | > 100 | – | – | > 100 | > 100 | > 100 | > 100
O=C1CC/C(=C/COc2cc(=O)oc3ccccc23)O1 | 16.8 | 33.1 | 12.2 | 25.1 | 14 | 28.5 | 11.5 | 24.4 | 1.29 | 2.55 | 6.41 | 19.7 | 11.5 | 27.5 | 14.3 | 31.1 | – | –
CN(C)c1ccc(/C=N/S(=O)(=O)c2ccc(-n3c(-c4ccccc4)nc4c(Br)cc(Br)cc4c3=O)cc2)cc1 | 15.3 | 38.3 | 28.3 | > 92.8 | 43.6 | > 100 | 44 | > 100 | 40.4 | > 100 | 46.1 | > 100 | 44.6 | > 100 | 47.7 | > 100 | – | –
C[C@@H](CO)NC(=O)c1cc(-c2ccc(Cl)cc2)nn(-c2cnn(C)c2)c1=O | 12.7 | 26 | 14.5 | 31.7 | 28.4 | 82.1 | 51.5 | > 100 | 15.4 | 67.2 | 14.6 | 37.2 | 16.7 | 71.9 | 41.8 | > 100 | – | –
COc1ccc(CCN2CCC(CN(C)Cc3cnn(-c4ccccc4)c3)CC2)cc1 | 3.96 | 14.9 | 2.63 | 7.36 | 2.52 | 7.53 | 3.58 | 20.1 | 10.9 | 33 | 12.1 | 24.8 | 26.7 | > 100 | 15.4 | 35.6 | – | –
